Test systems include HOP-92 NSCLC; DU-145 prostate; HT29 colon; NCI-H460 lung; UACC-62 melanoma; NCI-H522 lung; A498 renal; ACHN renal; HL-60(TB) leukemia; U251 CNS.
Common to all, as to assay: NCI anticancer screen, dose series, 48 h

Where “and” joins values, the source holds several entries; their conditions need not be identical. Equal values may be shown once.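 Compound exposure: 48 hours, 5 concentrations, 96-well plates. GI50 = concentration required for 50% inhibition of growth. Definition used: TGI = concentration required for complete inhibition of growth.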

Turning to `COc1cc(/C=C/c2cc(/C=C/c3ccc(O)c(OC)c3)n(C(=O)c3ccc(Cl)cc3)n2)ccc1O`, the GI50 in the experiment on HOP-92 NSCLC is 3.97 µM; in the experiment with DU-145 prostate it was 3.03 µM; in the experiment with HT29 colon, 3.42 µM; in the experiment with NCI-H460 lung it was 2.03 µM; with UACC-62 melanoma, 2.72 µM; in the experiment on NCI-H522 lung, 0.595 µM. The GI50 is 2.71 µM in the experiment on A498 renal, 1.03 µM in the experiment on ACHN renal, 1.58 µM in the experiment on HL-60(TB) leukemia and 2.94 µM with U251 CNS. Moreover, the TGI is 22.2 µM in the experiment with HOP-92 NSCLC; 13.9 µM in the experiment on DU-145 prostate; above 100 µM in the experiment on HT29 colon; 20.4 µM in the experiment on NCI-H460 lung; 10.1 µM with UACC-62 melanoma; 4.32 µM in the experiment with NCI-H522 lung. Also, the TGI was found to be 9.6 µM in the experiment on A498 renal, 13.7 µM in the experiment with ACHN renal, 7.62 µM with HL-60(TB) leukemia and 11.6 µM with U251 CNS.
With `CC[C@H](C)[C@H](NC(=O)[C@H]1CCCCN1C)C(=O)N(C)[C@H](C[C@@H](OC(C)=O)c1cccc(C(=O)N[C@@H](Cc2ccccc2)C[C@H](C)C(=O)OC)n1)C(C)C`, the GI50 in the experiment on HOP-92 NSCLC is 0.000632 µM and 0.0025 µM; with DU-145 prostate, 0.00282 µM and 0.0025 µM; with HT29 colon it was 0.00182 µM and 0.0025 µM; in the experiment with NCI-H460 lung, 0.0038 µM and 0.0025 µM; in the experiment with UACC-62 melanoma, 0.000589 µM and 0.0025 µM; with NCI-H522 lung, 0.00154 µM and 0.0025 µM. Further, the GI50 in the experiment with A498 renal is 0.00445 µM and 0.0025 µM; in the experiment on ACHN renal, 0.00638 µM and 0.013 µM; in the experiment on HL-60(TB) leukemia, 0.0017 µM and < 0.0025 µM; in the experiment on U251 CNS it was 0.00408 µM and 0.00381 µM. Besides, the TGI was above 25 µM in the experiment with DU-145 prostate; 0.0421 µM in the experiment on HT29 colon; above 25 µM in the experiment on NCI-H460 lung; above 25 µM in the experiment on UACC-62 melanoma; 0.00894 µM in the experiment on NCI-H522 lung; 0.0166 µM in the experiment on A498 renal. Moreover, the TGI in the experiment on ACHN renal is above 25 µM; with HL-60(TB) leukemia, 0.00655 µM and < 0.0025 µM; in the experiment on U251 CNS it was above 25 µM.
Regarding `C/C=C(\C)c1cc(=O)c2c(C)cc3c(c2o1)C(=O)c1c(O)c(C2CC(C)(N(C)C)C(OC(C)=O)C(C)O2)cc(C2CC(N(C)C)C(O)C(C)O2)c1C3=O` (centres undefined), the TGI with HOP-92 NSCLC is 30.9 µM; in the experiment on DU-145 prostate it was above 50 µM; with HT29 colon, 6.75 µM; with NCI-H460 lung, 5.94 µM; with UACC-62 melanoma, 3.97 µM; in the experiment with NCI-H522 lung it was 1.16 µM. Besides, the TGI was 11.1 µM in the experiment on A498 renal, 10 µM in the experiment with ACHN renal, above 50 µM in the experiment on HL-60(TB) leukemia and above 50 µM in the experiment on U251 CNS.
Turning to `NS(=O)(=O)OC[C@H]1C[C@@H](Nc2ccnc3cc(-c4cccc(SC(F)(F)F)c4)nn23)[C@H](O)[C@@H]1O`, the GI50 with HOP-92 NSCLC was 0.0308 µM; with DU-145 prostate it was 0.029 µM; in the experiment with HT29 colon, 0.249 µM; with NCI-H460 lung, 0.259 µM; in the experiment on UACC-62 melanoma, 0.0325 µM; in the experiment on NCI-H522 lung it was 0.0184 µM. Further, the GI50 is 0.013 µM with A498 renal, 0.176 µM in the experiment with ACHN renal, 0.0332 µM in the experiment on HL-60(TB) leukemia and 0.016 µM in the experiment on U251 CNS. Besides, the TGI with HOP-92 NSCLC worked out at 0.0788 µM; in the experiment on DU-145 prostate it was 0.19 µM; in the experiment on HT29 colon, 0.552 µM; in the experiment on NCI-H460 lung, 0.679 µM; in the experiment on UACC-62 melanoma, 0.195 µM; in the experiment with NCI-H522 lung, 0.0363 µM. The TGI in the experiment on A498 renal is 0.0262 µM; in the experiment with ACHN renal, 0.36 µM; with HL-60(TB) leukemia it was 0.15 µM; in the experiment with U251 CNS, 0.0339 µM.
On to `CCc1ccc(Oc2c(-c3ccc(OCc4ccc(Cl)cc4)cc3O)n[nH]c2C(F)(F)F)cc1`, for which the GI50 in the experiment with HOP-92 NSCLC is 2.03 µM; in the experiment on DU-145 prostate it was 2.64 µM; with HT29 colon, 2 µM; in the experiment with NCI-H460 lung, 2.05 µM; with UACC-62 melanoma, 1.8 µM; with NCI-H522 lung it was 1.72 µM. Also, the GI50 in the experiment with A498 renal was 1.87 µM; in the experiment on ACHN renal it was 1.89 µM; in the experiment with HL-60(TB) leukemia it was 2.41 µM; in the experiment with U251 CNS, 1.79 µM. For the same molecule, the TGI worked out at 4.77 µM in the experiment with HOP-92 NSCLC; 7.44 µM in the experiment on DU-145 prostate; 3.95 µM in the experiment with HT29 colon; 4.1 µM with NCI-H460 lung; 4.81 µM with UACC-62 melanoma; 4.33 µM in the experiment with NCI-H522 lung. The TGI was determined as 3.82 µM in the experiment on A498 renal, 4 µM in the experiment on ACHN renal, 4.86 µM in the experiment on HL-60(TB) leukemia and 3.22 µM in the experiment with U251 CNS.
For the molecule `CCOC(=O)C1=CCCC[C@H]1S(=O)(=O)Nc1ccc(F)cc1Cl`, the GI50 is 15.1 µM in the experiment with HOP-92 NSCLC; 25.4 µM in the experiment on DU-145 prostate; 41.1 µM with HT29 colon; 22.4 µM in the experiment with NCI-H460 lung; 19.1 µM with UACC-62 melanoma; 23.1 µM in the experiment with NCI-H522 lung. The GI50 was 42.6 µM with A498 renal, 29 µM in the experiment with ACHN renal, 15.7 µM in the experiment with HL-60(TB) leukemia and 24.7 µM in the experiment on U251 CNS. Besides, the TGI in the experiment on HOP-92 NSCLC is 58.3 µM; with DU-145 prostate it was above 100 µM; in the experiment with HT29 colon it was above 100 µM; in the experiment with NCI-H460 lung it was 82.1 µM; in the experiment with UACC-62 melanoma, 72.7 µM; in the experiment on NCI-H522 lung it was 90.1 µM. The TGI was above 100 µM in the experiment with A498 renal, above 100 µM with ACHN renal, 47.9 µM in the experiment with HL-60(TB) leukemia and above 100 µM in the experiment on U251 CNS.
Regarding `CCc1nc(N)nc(N)c1-c1ccc(Cl)c([N+](=O)[O-])c1`, the TGI with HOP-92 NSCLC is above 87.1 µM; with DU-145 prostate it was above 100 µM; with HT29 colon, above 100 µM; in the experiment with NCI-H460 lung, above 100 µM; in the experiment on UACC-62 melanoma it was above 86.4 µM; in the experiment on NCI-H522 lung, above 100 µM. The TGI was above 96 µM with A498 renal, above 100 µM in the experiment on ACHN renal, above 51.5 µM with HL-60(TB) leukemia and above 100 µM in the experiment with U251 CNS.
For `Cc1c(-c2cnccn2)ssc1=S`, the TGI in the experiment with HOP-92 NSCLC is 89.7 µM; with DU-145 prostate, above 100 µM; in the experiment with HT29 colon, above 100 µM; in the experiment with NCI-H460 lung, above 100 µM; in the experiment on UACC-62 melanoma, above 100 µM; with NCI-H522 lung, above 89.8 µM. Moreover, the TGI is 59.7 µM in the experiment on A498 renal, above 100 µM with ACHN renal, above 77.4 µM with HL-60(TB) leukemia and above 100 µM with U251 CNS.
Take `O=C(O)CCNCC(=O)O`: the TGI in the experiment on HOP-92 NSCLC, in the experiment on DU-145 prostate, in the experiment with HT29 colon, in the experiment on NCI-H460 lung, in the experiment on UACC-62 melanoma and in the experiment with NCI-H522 lung was above 100 µM in each case. Further, the TGI in the experiment with A498 renal, in the experiment with ACHN renal, in the experiment on HL-60(TB) leukemia and in the experiment on U251 CNS was above 100 µM throughout.
